Assay results: ChEMBL document CHEMBL1126052, “2-Carboxytetrahydroquinolines. Conformational and stereochemical requirements for antagonism of the glycine site on the NMDA receptor” (J Med Chem, 1992)

The compounds below were run against Glutamate NMDA receptor (assay: Concentration required to inhibit 50% of the specific binding of [3H]glycine to NMDA receptor prepared from rat cerebral cortex and hippocampus).
Assay type: tissue-based

Structure (SMILES)	IC50
O=C(O)[C@@H]1C[C@H](C(=O)OCc2ccccc2)c2c(Cl)cc(Cl)cc2N1	2.33 µM
O=C(O)C[C@H]1C[C@H](C(=O)O)Nc2cc(Cl)cc(Cl)c21	0.134 µM
O=C(OCc1ccccc1)[C@H]1C[C@H](C(=O)O)Nc2cc(Cl)cc(Cl)c21	1.05 µM
Cc1cc(C)c2c(c1)NC(C(=O)O)CC2=O (configuration not stated)	1.86 µM
Cc1noc(C[C@H]2C[C@H](C(=O)O)Nc3cc(Cl)cc(Cl)c32)n1	2.53 µM
Cc1cc(C)c2c(c1)N[C@@H](C(=O)O)[C@@H](C)C2=O	13.7 µM
O=C(O)C1CCc2c(Cl)cc(Cl)cc2N1 (configuration not stated)	6.39 µM
O=C1CC(C(=O)O)Nc2cc(Cl)ccc21 (configuration not stated)	2.36 µM
O=C1CC(C(=O)O)Nc2cccc(Cl)c21 (configuration not stated)	6.96 µM
O=C1CC(C(=O)O)Nc2cc(I)cc(Cl)c21 (configuration not stated)	3.84 µM
Cc1cc(C)c2c(c1)N[C@@H](C(=O)O)[C@H](C)C2=O	> 100 µM
O=C1CC(C(=O)O)Nc2ccccc21 (configuration not stated)	> 100 µM
O=C1CC(C(=O)O)Nc2cc(Cl)cc(Cl)c21 (configuration not stated)	2.31 µM
O=C(O)c1cc(C(=O)O)c2c(Cl)cc(Cl)cc2n1	> 100 µM
O=C1CC(C(=O)O)Nc2cc(Cl)cc(I)c21 (configuration not stated)	0.36 µM
O=C1CC(C(=O)O)Nc2cc(Br)cc(Br)c21 (configuration not stated)	1.29 µM

Further lines, results first:

IC50	Structure (SMILES)
31.4 µM	O=C(O)[C@@H]1C[C@H](C(=O)O)c2c(Cl)cc(Cl)cc2N1
5.02 µM	COC(=O)[C@H]1C[C@@H](C(=O)O)Nc2cc(Cl)ccc21
3.09 µM	COC(=O)[C@H]1C[C@H](C(=O)O)Nc2cc(Cl)cc(I)c21
3.44 µM	NC(=O)[C@H]1C[C@@H](C(=O)O)Nc2cc(Cl)cc(Cl)c21
0.72 µM	NC(=O)[C@H]1C[C@H](C(=O)O)Nc2cc(Cl)cc(Cl)c21
0.603 µM	COC(=O)C[C@H]1C[C@H](C(=O)O)Nc2cc(Cl)cc(Cl)c21
26.1 µM	COC(=O)[C@H]1C[C@@H](C(=O)O)Nc2cccc(Cl)c21
15 µM	O=C(O)C[C@H]1C[C@@H](C(=O)O)Nc2cc(Cl)cc(Cl)c21
2.89 µM	COC(=O)[C@H]1C[C@H](C(=O)O)Nc2cc(Br)cc(Br)c21
2.47 µM	COC(=O)[C@H]1C[C@H](C(=O)O)Nc2cc(Cl)cc(Cl)c21
20 µM	O=C(O)[C@H]1C[C@H](C(=O)O)Nc2cc(Cl)cc(Cl)c21
16.9 µM	COC(=O)[C@H]1C[C@H](C(=O)O)Nc2cc(Cl)ccc21
176 µM	COC(=O)[C@H]1C[C@H](C(=O)O)Nc2cccc(Cl)c21
4.18 µM	COC(=O)[C@H]1C[C@@H](C(=O)O)Nc2cc(Cl)cc(I)c21
2.05 µM	COC(=O)[C@H]1C[C@@H](C(=O)O)Nc2cc(Br)cc(Br)c21
1.21 µM	COC(=O)[C@H]1C[C@@H](C(=O)O)Nc2cc(Cl)cc(Cl)c21
